According to PubChem BioAssay (NCI):
Several values for one entry are separate records, joined by “and”; a condition that tells them apart may be missing. Equal values may be shown once.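 Dose response: 5 concentrations. Exposure: 48 h. Format: 96-well plates. Endpoint: linear interpolation; highest concentration if not reached. At the GI50, growth is halved. TGI: total growth inhibition.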

What was measured:
Experiment in all cases: NCI tumour cell line growth inhibition, 48 h
[1] = tested on: SK-MEL-28 melanoma
[2] = tested on: NCI-H23 lung
[3] = tested on: A498 renal
[4] = tested on: MDA-MB-435
[5] = tested on: T-47D breast
[6] = tested on: MDA-MB-231 breast
[7] = tested on: BT-549 breast

SMILES	GI50 [1]	TGI [1]	GI50 [2]	TGI [2]	GI50 [3]	TGI [3]	GI50 [4]	TGI [4]	GI50 [5]	TGI [5]	GI50 [6]	TGI [6]	GI50 [7]	TGI [7]
CN1CCN(c2ccc(C(=O)Nc3n[nH]c4ccc(Cc5cc(F)cc(F)c5)cc34)c(NC3CCOCC3)c2)CC1	1.6 µM and 1.58 µM	3.15 µM and 2.95 µM	2.63 µM and 1.61 µM	> 10 µM and 3.54 µM	1.77 µM and 0.846 µM	6.85 µM and 2.24 µM	1.39 µM and 1.49 µM	2.86 µM and 3.13 µM	1.99 µM	> 10 µM	1.89 µM and 1.5 µM	5.51 µM and 3.06 µM	5.61 µM and 1.8 µM	> 10 µM and 3.28 µM
O=S(=O)(Nc1ncccn1)c1ccc(N=Nc2ccc(O)c3ncccc23)cc1	12.5 µM	46.3 µM			12.5 µM	27.2 µM	5.31 µM	21.8 µM			15.9 µM	97.1 µM	10.7 µM	27 µM
N#Cc1cc(C#N)c(Cl)nc1N		> 10 µM		> 10 µM				> 10 µM		> 10 µM				
C(=Nc1ccccc1)C1CCCC[N-]1.C(=Nc1ccccc1)C1CCCC[N-]1.[Cu+2].[O-][Cl+3]([O-])([O-])O (stereo not drawn)	20.5 µM	48.5 µM	15.1 µM	33.2 µM	18.1 µM	44.9 µM	1.57 µM	4.31 µM	21.6 µM	> 100 µM	9.75 µM	28.1 µM	18.5 µM	55.8 µM
CO[C@H](C(=O)[C@@H](O)[C@@H](C)O)[C@@H]1Cc2cc3cc(O[C@H]4C[C@@H](O[C@H]5C[C@@H](O)[C@H](O)C(C)O5)[C@H](O)C(C)O4)c(C)c(O)c3c(O)c2C(=O)[C@H]1O[C@H]1C[C@@H](O[C@H]2C[C@@H](O[C@H]3C[C@@H](OC)[C@H](O)C(C)O3)[C@@H](O)C(C)O2)C(O)(O)C(C)O1 (stereo partly drawn)	0.0439 µM	1.11 µM	0.176 µM	4.22 µM	0.0198 µM	0.115 µM	0.171 µM	3.53 µM	0.0543 µM	24.6 µM	0.794 µM	24.5 µM	0.107 µM	1.64 µM
COc1cc(-c2nn3c(/C=C4/C(=O)Nc5ccccc54)c(-c4ccc(C)cc4)nc3s2)cc(OC)c1OC			4.54 µM	25.3 µM	7.28 µM	36.7 µM			3.13 µM	> 100 µM	3.51 µM	20.8 µM	4.69 µM	38.1 µM
Cc1c2cc[nH]c(=O)c2c(C)c2c1[nH]c1cc(OCCN3CCN(C)CC3)ccc12	1.5 µM	2.98 µM	0.833 µM	3.67 µM	1.3 µM	2.94 µM	1.06 µM	2.43 µM	0.782 µM	15.2 µM	0.783 µM	3.19 µM	2.71 µM	11.4 µM
O=[As](O)(O)c1ccc(NCc2ccccc2)cc1		> 100 µM		> 100 µM		> 100 µM		> 100 µM		> 100 µM		> 100 µM		> 100 µM
Cc1cc(C)nc(NC(N)=NCCc2ccccc2)n1	3.59 µM	33.6 µM	7.02 µM	> 100 µM	5.26 µM	39 µM	1.52 µM	4.49 µM	2.35 µM	43.6 µM	6.55 µM	52.8 µM	3.92 µM	> 100 µM
Cc1nc2ccc(CN(C)c3ccc(C(=O)N[C@@H](CCC(=O)O)C(=O)O)s3)cc2c(=O)[nH]1		> 100 µM	2.62 µM	> 100 µM	> 100 µM	> 100 µM		> 100 µM		> 100 µM		> 100 µM		> 100 µM
CNC(=O)c1cc(COc2nnc(Nc3ccc(Cl)cc3)c3ccoc23)ccn1	7.98 µM and > 10 µM	27.7 µM and > 10 µM	11.1 µM and > 10 µM	37.8 µM and > 10 µM	6.65 µM and > 10 µM	21.9 µM and > 10 µM	10.4 µM and > 10 µM	43.9 µM and > 10 µM	2.87 µM and 5.77 µM	12.5 µM and > 10 µM	3.43 µM and > 10 µM	13.8 µM and > 10 µM	3.53 µM and > 10 µM	16.6 µM and > 10 µM
O=C(c1ccc2ccccc2c1O)N1CCCCC1		> 100 µM		90 µM		> 100 µM		> 100 µM		> 100 µM		> 100 µM		
COC(=O)[C@@H](NC(=O)NC(=O)NC(=O)CI)C(C)C	1.88 µM	3.85 µM	16.1 µM	33.8 µM	16.7 µM	30.9 µM	9.97 µM	21.7 µM	6 µM	34.5 µM	17 µM	34.9 µM	11.5 µM	23.7 µM
C=CC(=O)Nc1ccc(Nc2nccc(-c3ccc(N4CCCC4)c(C#N)c3)n2)cc1	4 µM	13.1 µM	> 25 µM	> 25 µM	4.82 µM	24.9 µM	7.09 µM	> 25 µM	> 25 µM	> 25 µM	> 25 µM	> 25 µM	> 25 µM	> 25 µM
O=C(c1ccccc1)c1c(NCC(O)CN2CCCC2)n(Cc2ccccc2)c(=O)n(Cc2ccccc2)c1=O (stereo not drawn)	17.6 µM	32.3 µM	20 µM	44.1 µM	2.3 µM	12.7 µM	17.4 µM	32.8 µM	21.3 µM	45.7 µM	15.3 µM	29.6 µM	13.1 µM	27 µM
Cc1[nH]ncc1-c1cc2nc(C3CC4CCN3CC4)[nH]c(=O)c2s1 (stereo not drawn)	4.94 µM	> 100 µM	3.82 µM	> 100 µM	1.98 µM	8.72 µM	4.45 µM	30 µM			4.89 µM	> 100 µM	2.59 µM	29.6 µM
COc1ccc(-c2[nH]ncc2-c2cc3c(c(OC)c2)OCC(=O)N3)cc1	5.19 µM	> 100 µM	1.46 µM	> 77.7 µM	0.17 µM	0.646 µM			0.406 µM	42.9 µM	1.21 µM	> 100 µM	0.469 µM	41.5 µM
O=C(/C=C/c1ccc(B(O)O)cc1)/C=C/c1ccc(B(O)O)cc1	2.26 µM	5.21 µM	2.85 µM	8.69 µM	2.34 µM	10.3 µM	1.9 µM	4.24 µM	2.7 µM	12.3 µM	3.08 µM	10.8 µM	1.55 µM	3.35 µM
CCCN(CCC)CCCNCc1cc(I)cc(C)c1O	15.4 µM	28.9 µM	15.2 µM	33.5 µM	11.6 µM	23.8 µM	12 µM	24.8 µM	15.9 µM	42.1 µM	14.5 µM	28.5 µM	12.3 µM	24.8 µM
Cc1ccc(C(=O)N(CCCN)[C@@H](c2nc3cc(Cl)ccc3c(=O)n2Cc2ccccc2)C(C)C)cc1	1.11 µM and 1.15 µM	2.5 µM and 2.42 µM	< 0.01 µM	1.59 µM and 1.67 µM	< 0.01 µM	1.77 µM and 0.816 µM	< 0.01 µM	< 0.01 µM	< 0.01 µM	1.98 µM and 1.67 µM	< 0.01 µM	0.233 µM and 0.172 µM	0.043 µM and 0.0103 µM	2.94 µM and 1.67 µM
CN1CCc2cc3c(cc2C1O)OCO3 (stereo not drawn)		22.3 µM and > 100 µM		32.1 µM and > 100 µM	22.9 µM and > 100 µM	39.9 µM and > 100 µM		11.9 µM and > 100 µM			17.6 µM and > 100 µM	35 µM and > 100 µM		
Cc1ccc(NCCCN2CCN(CCCNc3ccc(C)c4sc5ccccc5c(=O)c34)CC2)c2c(=O)c3ccccc3sc12		> 100 µM		> 100 µM		> 100 µM		> 100 µM		> 100 µM		> 100 µM		
CCSc1nnc2c(-c3ccccc3)n[nH]c2n1		> 100 µM		> 100 µM				> 100 µM		> 100 µM		> 100 µM		> 100 µM
CO/C(=N\N=C\c1cc(OC)ccc1OC)c1ccncc1		> 10 µM		> 10 µM		> 10 µM				> 10 µM				
CC(=O)N1CCN(C2=Nc3ccccc3CO2)C1=S	> 100 µM	> 100 µM	> 100 µM	> 100 µM			81.4 µM	> 100 µM	33 µM	> 100 µM	> 100 µM	> 100 µM	40.1 µM	> 100 µM
COc1cccc(C2CC(c3cc(OC)c(OC)c(OC)c3)=NN2)c1 (stereo not drawn)	17.8 µM	> 100 µM			12.9 µM	38.6 µM	2.79 µM	9.39 µM	20.2 µM	> 100 µM	26.2 µM	> 100 µM	3.35 µM	19.1 µM
CC/C(Cc1ccccc1)=C(\c1ccc(OCCN2CCCCCC2)cc1)c1ccc(OC(=O)NCc2ccccc2)cc1	1.44 µM	5.17 µM	5.89 µM	13.8 µM			1.54 µM	5.08 µM	0.916 µM	7.91 µM	2.59 µM	9.02 µM	6.74 µM	14.1 µM
Nc1ncnc2c1ncn2C1OC(COP(=O)(O)CP(=O)(O)O)C(O)C1O (stereo not drawn)		> 100 µM		> 100 µM		> 100 µM		> 100 µM		> 100 µM				> 100 µM
